From PMC5362750, “Discovery of Potent, Selective, and Orally Bioavailable Small-Molecule Modulators of the Mediator Complex-Associated Kinases CDK8 and CDK19” (Journal of Medicinal Chemistry, 2016)

Key:
MARK1 = MARK1 (Homo sapiens, UniProt Q9P0L2); test: Kinase panel (Millipore); assay type: biochemical; details: 1 µM, ATP at Km
MAPK2 = MAPK2 (Homo sapiens, UniProt P28482); test: Kinase panel (Millipore); assay type: biochemical; details: 1 µM, ATP at Km
EGFR(T790M,L858R) = EGFR(T790M,L858R) (Homo sapiens, UniProt P00533, L858R/T790M); details: 1 µM, ATP at Km
CB2 (h) = CB2 (h) (Homo sapiens, UniProt P34972); test: biochemical; details: read-out: % Inhibition of Control Specific Binding
JNK2ALPHA2 = JNK2ALPHA2 (Homo sapiens, UniProt P45984); test: Kinase panel (Millipore); assay type: biochemical; details: 1 µM, ATP at Km
PKCBII = PKCBII (Homo sapiens, UniProt P05771); test: Kinase panel (Millipore); assay type: biochemical; details: 1 µM, ATP at Km
PKCBII, sequence (P05771 1-673 isoform P05771-2): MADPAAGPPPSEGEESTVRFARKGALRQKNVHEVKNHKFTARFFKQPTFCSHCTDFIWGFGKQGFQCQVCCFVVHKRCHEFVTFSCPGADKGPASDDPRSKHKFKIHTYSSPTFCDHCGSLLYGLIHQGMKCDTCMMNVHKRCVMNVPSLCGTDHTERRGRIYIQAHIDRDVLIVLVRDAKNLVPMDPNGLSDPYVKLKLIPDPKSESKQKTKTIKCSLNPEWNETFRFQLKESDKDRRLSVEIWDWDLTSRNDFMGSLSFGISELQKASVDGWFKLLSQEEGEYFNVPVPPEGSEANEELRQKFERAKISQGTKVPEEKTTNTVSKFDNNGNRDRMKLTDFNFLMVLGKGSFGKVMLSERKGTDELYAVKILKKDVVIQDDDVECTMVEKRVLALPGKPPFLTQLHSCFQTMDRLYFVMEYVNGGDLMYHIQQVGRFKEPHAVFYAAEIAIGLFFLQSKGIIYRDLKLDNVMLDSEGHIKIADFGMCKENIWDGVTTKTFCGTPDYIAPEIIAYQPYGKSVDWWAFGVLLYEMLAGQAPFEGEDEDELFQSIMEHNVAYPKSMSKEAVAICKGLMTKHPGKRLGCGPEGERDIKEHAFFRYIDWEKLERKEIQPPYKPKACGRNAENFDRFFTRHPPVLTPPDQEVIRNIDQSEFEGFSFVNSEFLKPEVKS

MINK = target: T1, MINK (Homo sapiens, UniProt Q8N4C8); test: Kinase panel (Millipore); assay type: biochemical; details: 1 µM, ATP at Km
T1 construct: purchased Millipore (KinaseProfiler) kinase panel

MAPKAP-K3 = target: T2, MAPKAP-K3 (Homo sapiens, UniProt Q16644); test: Kinase panel (Millipore); assay type: biochemical; details: 1 µM, ATP at Km
T2 construct: purchased Millipore (KinaseProfiler) kinase panel

STK33 = STK33 (Homo sapiens, UniProt Q9BYT3); details: 1 µM, ATP at Km
in vitro = details: human, Caco-2, pH 7.4
MSK1 = MSK1 (Homo sapiens, UniProt O75582); test: Kinase panel (Millipore); assay type: biochemical; details: 1 µM, ATP at Km
[1] = female, NMRI, mouse, in vivo
CDK3/CYCLINE = CDK3/CYCLINE (Homo sapiens, UniProt Q00526); details: 1 µM, ATP at Km
FLT1 = target: T3, FLT1 (Homo sapiens, UniProt P17948); test: Kinase panel (Millipore); assay type: biochemical; details: 1 µM, ATP at Km
T3 construct: purchased Millipore (KinaseProfiler) kinase panel

EGFR(T790M) = EGFR(T790M) (Homo sapiens, UniProt P00533, T790M); details: 1 µM, ATP at Km
ARG = ARG (Homo sapiens, UniProt P42684); test: Kinase panel (Millipore); assay type: biochemical; details: 1 µM, ATP at Km
cMET (Y1248H) = cMET (Y1248H) (Homo sapiens, UniProt P08581, Y1230H); details: 1 µM, ATP at Km
ABL(T315I) = ABL(T315I) (Homo sapiens, UniProt P00519, T315I); details: 1 µM, ATP at Km
PKG1BETA = target: T4, PKG1BETA (Homo sapiens, UniProt Q13976); test: Kinase panel (Millipore); assay type: biochemical; details: 1 µM, ATP at Km
T4 construct: purchased Millipore (KinaseProfiler) kinase panel

EGFR = EGFR (Homo sapiens, UniProt P00533); test: Kinase panel (Millipore); assay type: biochemical; details: 1 µM, ATP at Km
IGF-1R = target: T5, IGF-1R (Homo sapiens, UniProt P08069); test: Kinase panel (Millipore); assay type: biochemical; details: 1 µM, ATP at Km
T5 construct: purchased Millipore (KinaseProfiler) kinase panel
T5 sequence (P08069 31-1367): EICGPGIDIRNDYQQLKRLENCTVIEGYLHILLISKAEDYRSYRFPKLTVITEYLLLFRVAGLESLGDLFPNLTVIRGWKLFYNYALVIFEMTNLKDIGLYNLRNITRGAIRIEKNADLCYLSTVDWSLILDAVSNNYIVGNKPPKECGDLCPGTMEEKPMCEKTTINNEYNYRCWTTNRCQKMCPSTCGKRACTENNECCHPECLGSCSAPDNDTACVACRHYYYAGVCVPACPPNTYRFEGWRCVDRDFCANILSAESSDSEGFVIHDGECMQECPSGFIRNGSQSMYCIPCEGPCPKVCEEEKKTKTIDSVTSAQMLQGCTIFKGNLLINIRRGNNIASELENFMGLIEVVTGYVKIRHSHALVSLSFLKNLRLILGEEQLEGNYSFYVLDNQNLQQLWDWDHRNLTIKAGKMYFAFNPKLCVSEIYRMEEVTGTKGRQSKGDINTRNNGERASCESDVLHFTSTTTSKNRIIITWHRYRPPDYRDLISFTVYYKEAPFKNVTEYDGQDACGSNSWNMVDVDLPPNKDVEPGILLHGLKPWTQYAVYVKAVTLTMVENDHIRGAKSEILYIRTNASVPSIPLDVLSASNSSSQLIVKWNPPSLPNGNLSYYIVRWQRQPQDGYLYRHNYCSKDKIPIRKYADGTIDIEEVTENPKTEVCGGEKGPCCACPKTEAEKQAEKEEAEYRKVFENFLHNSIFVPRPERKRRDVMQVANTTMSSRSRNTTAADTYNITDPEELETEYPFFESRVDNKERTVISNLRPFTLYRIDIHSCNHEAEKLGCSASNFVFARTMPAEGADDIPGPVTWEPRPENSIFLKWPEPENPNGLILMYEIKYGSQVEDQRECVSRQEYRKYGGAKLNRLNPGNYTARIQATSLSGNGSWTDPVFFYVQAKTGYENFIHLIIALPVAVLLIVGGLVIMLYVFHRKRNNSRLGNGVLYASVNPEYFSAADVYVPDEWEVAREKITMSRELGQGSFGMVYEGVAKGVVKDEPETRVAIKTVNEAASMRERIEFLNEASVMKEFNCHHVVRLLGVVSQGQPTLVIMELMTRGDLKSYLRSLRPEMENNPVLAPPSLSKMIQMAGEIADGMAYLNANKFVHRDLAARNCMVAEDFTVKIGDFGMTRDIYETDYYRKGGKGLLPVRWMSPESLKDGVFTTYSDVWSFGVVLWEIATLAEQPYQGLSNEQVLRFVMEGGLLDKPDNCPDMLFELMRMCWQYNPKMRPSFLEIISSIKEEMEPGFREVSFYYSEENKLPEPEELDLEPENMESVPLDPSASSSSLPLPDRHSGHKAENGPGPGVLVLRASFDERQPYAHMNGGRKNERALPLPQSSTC

MAPKAP-K2 = target: T6, MAPKAP-K2 (Homo sapiens, UniProt P49137); test: Kinase panel (Millipore); assay type: biochemical; details: 1 µM, ATP at Km
T6 construct: purchased Millipore (KinaseProfiler) kinase panel

H4 (h) = target: T7, H4 (h) (Homo sapiens, UniProt Q9H3N8); test: CEREP binding assay; details: agonist radioligand, read-out: % Inhibition of Control Specific Binding
T7 construct: purchased Millipore (KinaseProfiler) kinase panel

PLK1 = PLK1 (Homo sapiens, UniProt P53350); test: Kinase panel (Millipore); assay type: biochemical; details: 1 µM, ATP at Km
TEC ACTIVATED = target: T8, TEC ACTIVATED (Homo sapiens, UniProt P42680); test: Kinase panel (Millipore); assay type: biochemical; details: 1 µM, ATP at Km
T8 construct: purchased Millipore (KinaseProfiler) kinase panel
T8 sequence (P42680 whole entry): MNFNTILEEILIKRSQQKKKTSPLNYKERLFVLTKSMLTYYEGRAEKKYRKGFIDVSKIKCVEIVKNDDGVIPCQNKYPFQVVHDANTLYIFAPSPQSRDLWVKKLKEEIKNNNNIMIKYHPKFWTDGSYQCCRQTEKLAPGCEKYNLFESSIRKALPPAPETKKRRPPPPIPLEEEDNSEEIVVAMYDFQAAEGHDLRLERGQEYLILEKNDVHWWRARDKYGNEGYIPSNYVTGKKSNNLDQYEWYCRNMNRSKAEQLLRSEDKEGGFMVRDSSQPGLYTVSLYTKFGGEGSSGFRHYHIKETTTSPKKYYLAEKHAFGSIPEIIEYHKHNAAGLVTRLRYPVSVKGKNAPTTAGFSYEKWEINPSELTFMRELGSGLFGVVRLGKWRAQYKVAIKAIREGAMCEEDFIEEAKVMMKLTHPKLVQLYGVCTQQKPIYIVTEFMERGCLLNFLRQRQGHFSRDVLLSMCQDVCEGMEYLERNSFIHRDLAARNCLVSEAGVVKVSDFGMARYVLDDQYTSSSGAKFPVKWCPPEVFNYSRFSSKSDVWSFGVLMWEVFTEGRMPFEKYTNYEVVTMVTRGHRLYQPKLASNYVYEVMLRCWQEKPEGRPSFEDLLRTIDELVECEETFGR

GSK3BETA = GSK3BETA (Homo sapiens, UniProt P49841); test: Kinase panel (Millipore); assay type: biochemical; details: 1 µM, ATP at Km
ERalpha (h) = ERalpha (h) (Homo sapiens, UniProt P03372); test: CEREP binding assay; details: agonist fluoligand, read-out: % Inhibition of Control Specific Binding
EGFR(L858R) = EGFR(L858R) (Homo sapiens, UniProt P00533, L858R); details: 1 µM, ATP at Km
SRC = SRC (Homo sapiens, UniProt P12931); test: Kinase panel (Millipore); assay type: biochemical; details: 1 µM, ATP at Km
SRC, sequence (P12931 whole entry): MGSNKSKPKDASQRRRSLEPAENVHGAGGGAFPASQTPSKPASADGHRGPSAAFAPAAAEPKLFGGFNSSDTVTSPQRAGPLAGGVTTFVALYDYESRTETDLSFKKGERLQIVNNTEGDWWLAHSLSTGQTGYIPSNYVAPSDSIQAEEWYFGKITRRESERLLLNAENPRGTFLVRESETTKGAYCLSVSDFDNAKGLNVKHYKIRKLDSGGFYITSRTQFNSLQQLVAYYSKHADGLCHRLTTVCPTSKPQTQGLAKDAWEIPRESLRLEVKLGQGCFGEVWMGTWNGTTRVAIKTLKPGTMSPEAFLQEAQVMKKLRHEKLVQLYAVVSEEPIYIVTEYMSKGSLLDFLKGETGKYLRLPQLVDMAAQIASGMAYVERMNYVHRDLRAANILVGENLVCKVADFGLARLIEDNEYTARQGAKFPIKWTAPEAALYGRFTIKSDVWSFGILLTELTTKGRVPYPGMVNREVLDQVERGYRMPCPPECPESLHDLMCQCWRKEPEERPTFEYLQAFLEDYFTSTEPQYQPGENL

FGFR1(V561M) = FGFR1(V561M) (Homo sapiens, UniProt P11362, V561M); details: 1 µM, ATP at Km
FGFR1(V561M), sequence (P11362 22-822 V561M): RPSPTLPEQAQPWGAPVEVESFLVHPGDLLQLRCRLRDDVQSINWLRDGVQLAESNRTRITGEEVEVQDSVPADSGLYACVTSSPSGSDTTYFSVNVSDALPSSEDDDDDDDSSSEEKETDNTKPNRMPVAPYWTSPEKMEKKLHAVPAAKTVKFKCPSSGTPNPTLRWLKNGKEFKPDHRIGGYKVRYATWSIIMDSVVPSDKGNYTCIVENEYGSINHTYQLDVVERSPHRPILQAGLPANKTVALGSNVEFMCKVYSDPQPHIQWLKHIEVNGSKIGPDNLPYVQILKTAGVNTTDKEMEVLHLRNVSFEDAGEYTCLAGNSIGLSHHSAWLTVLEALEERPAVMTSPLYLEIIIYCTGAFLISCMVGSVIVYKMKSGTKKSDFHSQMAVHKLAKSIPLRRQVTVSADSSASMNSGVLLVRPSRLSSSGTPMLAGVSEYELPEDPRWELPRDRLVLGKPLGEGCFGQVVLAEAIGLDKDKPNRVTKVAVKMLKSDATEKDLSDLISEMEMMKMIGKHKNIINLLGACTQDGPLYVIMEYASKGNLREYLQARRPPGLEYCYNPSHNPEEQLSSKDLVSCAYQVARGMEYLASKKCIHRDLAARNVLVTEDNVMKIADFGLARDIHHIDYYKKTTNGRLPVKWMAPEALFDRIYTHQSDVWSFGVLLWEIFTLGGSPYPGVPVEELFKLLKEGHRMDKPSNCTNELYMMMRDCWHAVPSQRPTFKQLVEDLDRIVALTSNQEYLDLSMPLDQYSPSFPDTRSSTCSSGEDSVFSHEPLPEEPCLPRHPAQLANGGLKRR

IKKALPHA = target: T9, IKKALPHA (Homo sapiens, UniProt O15111); test: Kinase panel (Millipore); assay type: biochemical; details: 1 µM, ATP at Km
T9 construct: purchased Millipore (KinaseProfiler) kinase panel

CysLT1 (LTD4) (h) = target: T10, CysLT1 (LTD4) (h) (Homo sapiens, UniProt Q9Y271); test: CEREP binding assay; details: agonist radioligand, read-out: % Inhibition of Control Specific Binding
T10 construct: purchased Millipore (KinaseProfiler) kinase panel

alpha 2A (h) = alpha 2A (h) (Homo sapiens, UniProt P08913); test: biochemical; details: read-out: % Inhibition of Control Specific Binding
CKIT(D816H) = CKIT(D816H) (Homo sapiens, UniProt P10721, D816H); details: 1 µM, ATP at Km
TSSK1 = target: T11, TSSK1 (Homo sapiens, UniProt Q9BXA7); test: Kinase panel (Millipore); assay type: biochemical; details: 1 µM, ATP at Km
T11 construct: purchased Millipore (KinaseProfiler) kinase panel
T11 sequence (Q9BXA7 whole entry): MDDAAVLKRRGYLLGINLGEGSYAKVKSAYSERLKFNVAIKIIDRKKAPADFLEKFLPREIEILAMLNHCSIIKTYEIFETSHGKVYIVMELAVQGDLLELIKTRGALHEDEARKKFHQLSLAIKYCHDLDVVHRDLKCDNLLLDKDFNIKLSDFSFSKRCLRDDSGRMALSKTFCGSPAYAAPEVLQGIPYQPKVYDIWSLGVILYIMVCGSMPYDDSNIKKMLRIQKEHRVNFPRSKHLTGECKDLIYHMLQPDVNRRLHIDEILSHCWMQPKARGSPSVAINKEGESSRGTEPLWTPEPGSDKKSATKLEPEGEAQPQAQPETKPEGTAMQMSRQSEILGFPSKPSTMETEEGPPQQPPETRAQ

[2] = test system: sigma (non-selective) (h); details: 10 µM, agonist radioligand
PIM-2 = PIM-2 (Homo sapiens, UniProt Q9P1W9); test: Kinase panel (Millipore); assay type: biochemical; details: 1 µM, ATP at Km
5-HT2C (h) = 5-HT2C (h) (Homo sapiens, UniProt P28335); test: biochemical; details: read-out: % Inhibition of Control Specific Binding
TAK1 = target: T12, TAK1 (Homo sapiens, UniProt O43318); test: Kinase panel (Millipore); assay type: biochemical; details: 1 µM, ATP at Km
T12 construct: purchased Millipore (KinaseProfiler) kinase panel

alpha 2C (h) = alpha 2C (h) (Homo sapiens, UniProt P18825); test: biochemical; details: read-out: % Inhibition of Control Specific Binding
LOK = target: T13, LOK (Homo sapiens, UniProt O94804); test: Kinase panel (Millipore); assay type: biochemical; details: 1 µM, ATP at Km
T13 construct: purchased Millipore (KinaseProfiler) kinase panel

NK1 (h) = NK1 (h) (Homo sapiens, UniProt P25103); test: CEREP binding assay; details: agonist radioligand, read-out: % Inhibition of Control Specific Binding
NK1 (h), sequence (P25103 whole entry): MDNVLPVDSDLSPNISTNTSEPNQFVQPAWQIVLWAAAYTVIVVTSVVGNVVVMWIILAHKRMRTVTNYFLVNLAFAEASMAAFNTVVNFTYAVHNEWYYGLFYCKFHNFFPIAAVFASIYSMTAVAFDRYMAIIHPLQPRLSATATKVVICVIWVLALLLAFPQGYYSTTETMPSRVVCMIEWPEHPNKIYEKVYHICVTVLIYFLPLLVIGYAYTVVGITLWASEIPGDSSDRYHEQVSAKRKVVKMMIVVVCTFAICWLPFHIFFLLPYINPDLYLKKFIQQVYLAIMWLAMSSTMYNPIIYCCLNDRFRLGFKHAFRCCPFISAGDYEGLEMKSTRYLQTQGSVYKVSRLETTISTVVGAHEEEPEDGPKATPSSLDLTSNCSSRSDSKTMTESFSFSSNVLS

Structure (SMILES): Cn1ncc2cc(-c3cnc(N)c(Cl)c3N3CCC4(CCNC4=O)CC3)ccc21 [Compound 109, 8-(2-Amino-3-chloro-5-(1-methyl-1H-indazol-5-yl)pyridin-4-yl)-2,8-diazaspiro[4.5]decan-1-one]
- % effect (MARK1): 17%
- % effect (MAPK2): -6%
- % effect (EGFR(T790M,L858R)): 0%
- inhibition at 10 µM (CB2 (h)): 29%
- % effect (JNK2ALPHA2): -5%
- % effect (PKCBII): 3%
- % effect (MINK): 22%
- % effect (MAPKAP-K3): 5%
- % effect (STK33): 0%
- Papp A→B at 2 h, 1 μM (in vitro): 31.8 ×10⁻⁶ cm/s
- % effect (MSK1): -3%
- LBF [1]: 10%
- % effect (CDK3/CYCLINE): 6%
- % effect (FLT1): -8%
- % effect (EGFR(T790M)): 11%
- % effect (ARG): 5%
- % effect (cMET (Y1248H)): -5%
- % effect (ABL(T315I)): 4%
- % effect (PKG1BETA): -7%
- % effect (EGFR): 4%
- % effect (IGF-1R): -26%
- % effect (MAPKAP-K2): 1%
- inhibition at 10 µM (H4 (h)): 0%
- % effect (PLK1): -3%
- % effect (TEC ACTIVATED): -1%
- % effect (GSK3BETA): -11%
- inhibition at 10 µM (ERalpha (h)): 0%
- % effect (EGFR(L858R)): -4%
- % effect (SRC): 7%
- % effect (FGFR1(V561M)): -25%
- % effect (IKKALPHA): -17%
- inhibition at 10 µM (CysLT1 (LTD4) (h)): 12%
- inhibition at 10 µM (alpha 2A (h)): 11%
- % effect (CKIT(D816H)): 1%
- % effect (TSSK1): -7%
- % Inhibition of Control Specific Binding [2]: 12%
- % effect (PIM-2): -1%
- inhibition at 10 µM (5-HT2C (h)): 6%
- % effect (TAK1): -14%
- inhibition at 10 µM (alpha 2C (h)): 25%
- % effect (LOK): 11%
- inhibition at 10 µM (NK1 (h)): 25%
